Measured values from US9138437B2, “Pyrimidine substituted purine compounds as kinase (S) inhibitors” (VERASTEM, INC., priority 2009, dated 2015).
Converted amounts (≈) assume the structure as drawn. Read-outs that look alike come from different tables or passages of the source. Blank lines part the entries; values can stand above or below the molecule they belong to.

Experiments:
physchem = conditions: pH 7, aqueous buffer, kinetic from dmso stock
Description: (§1) Compound solubility is determined in a high-throughput kinetic solubility profiling method using a 96-well format. Compound solubility is assessed using a UV/Visible Microplate Spectrophotometer (Molecular Devices SpectraMax Plus384). Vorinostat (SAHA) and Nicardipine, purchased from Sigma, are used as reference standards.
(§2) The mixture is then shaken at 600 rpm for 1.5 h and allowed to stand at room temperature for 2 h. […] The resulting supernatant (80 μL) is transferred to the UV-analysis plate and diluted with DMSO (20 μL). The samples are quantified using calibration stocks of the respective compound made in phosphate buffer/DMSO (80:20).

in vitro = conditions: human, pH 7.4; for half-life: microsomes
Description: Verapamil, purchased from Sigma-Aldrich, is used as a reference standard in the assay. HLM are purchased from Xeno Tech (20 mg/mL in 250 mM sucrose solution). A 100 mM stock solution of potassium phosphate buffer is pre-prepared by combining 80 mL of 1M K2HPO4 and 20 mL of 1 M KH2PO4 in 900 mL of water (pH adjusted to 7.4 using diluted HCl) and stored at room temperature. K2HPO4.3H20 and KH2PO4 are obtained from Sigma Aldrich and the NADPH Regeneration System Solutions A and B from Gentest. The stop solution used to quench the reaction is a pre-prepared mixture of acetonitrile and DMSO (80:20) and is stored at 4° C. All solvents used are HPLC grade and the water used during the stock solution preparation and during LC-MS analysis is deionised using a Milli-Q system.
8 μL of the compound mix is then added to 72 μL of a pre-prepared incubation mix made up of water (2250 μL), 100 mM potassium phosphate buffer (2900 μL), NADPH Regeneration System Solution B (58 μL), NADPH Regeneration System Solution A (290 μL) and HLM (250 μL). The resulting reaction mixture (final compound concentration of 5 μM) is then incubated at 37° C. in a B. Braun Certomat H incubator after which a 50 μL aliquot is dispensed to a well on a separate plate well containing 100 μL of Stop solution. […] Each test compound is sampled multiple times and incubated for a series of time points (5, 15, 30, 45 and 60 min). Remaining compound concentration is determined by LC-MS (ABI Qtrap 3200) and comparison to a reference solution of known concentration. Stability is then expressed as a half-life in minutes (t½).

[1] = High throughput solubility assay (kinetic, UV); conditions: pH 7
Description: as §1, §2

Compound: Cc1nc2c(-c3cnc(N)nc3)nc(N3CCOCC3)nc2n1C(C)C [Cmpd of the invention, 5-(9-isopropyl-8-methyl-2-morpholin-4-yl-9H-purin-6-yl)-pyrimidin-2-ylamine]
- solubility, assessment in words (pH 7): acceptable

Compound: CCc1nc2c(-c3cnc(N)nc3)nc(N3CCOCC3)nc2n1C(C)C [Cmpd C]
- solubility, assessment in words (as drug candidate): acceptable
- solubility (physchem): > 250 µM
- half-life (in vitro): 36 min

Compound: CCC(C)n1c(Br)nc2c(-c3cnc(N)nc3)nc(N3CCOCC3)nc21 (stereo not shown) [Cmpd A]
- solubility, assessment in words (as drug candidate): low solubility
- solubility (physchem): 44 µM (≈ 19.1 µg/mL)
- half-life (in vitro): > 60 min

Compound: CCC(C)n1cnc2c(-c3cnc(N)nc3)nc(N3CCOCC3)nc21 (stereo not shown) [Cmpd E]
- solubility, assessment in words (as drug candidate): low solubility
- solubility (physchem): 35 µM (≈ 12.4 µg/mL)
- half-life (in vitro): > 60 min

- solubility (physchem): 18 µM (≈ 7.55 µg/mL)
- half-life at 5 μM (in vitro; liver microsomes): > 60 min
- solubility, assessment in words [1]: low solubility
Compound: CC(C)n1c(Br)nc2c(-c3cnc(N)nc3)nc(N3CCOCC3)nc21 [Cmpd B]

Compound: CCC(C)n1c(C)nc2c(-c3cnc(N)nc3)nc(N3CCOCC3)nc21 (stereo not shown) [Cmpd D]
- solubility, assessment in words (as drug candidate): acceptable
- solubility (physchem): > 250 µM
- half-life (in vitro): 26 min
